Reference: article PMC5931576, “Allosteric modulation of the farnesoid X receptor by a small molecule” (Scientific Reports, 2018)
Where two headings read alike, the source gives them in different places. One block for each compound: values may come before it.

Key:
HepG2 cells = test: WST-1 assay; format: cell-based; details: 48 h (or 24 h)
Method: (§1) In vitro biological evaluation […]
WST-1 assay (Roche Diagnostics International AG, Rotkreuz, Schweiz) was performed according to manufacturer’s protocol and as described previously. In brief, HepG2 cells were seeded in DMEM high glucose, supplemented with SP (1 mM), penicillin (100 U/mL), streptomycin (100 µg/mL) and 10% FCS in 96-well plates (3∙10^4 cells/well). After 24 h, medium was changed to DMEM high glucose, supplemented with penicillin (100 U/mL), streptomycin (100 µg/mL) and 1% charcoal stripped FCS and cells were incubated with 4 or 16 (final […]
and DMEM/1% DMSO as negative controls. After 48 h (or 24 h), WST reagent (Roche Diagnostics International AG) was added to each well according to manufacturer’s instructions. After 45 min incubation, absorption (450 nm/ reference: 620 nm) was determined with a Tecan Infinite M200 luminometer (Tecan Deutschland GmbH). Each experiment was repeated at least three times in triplicates. […]

RXRα = tested on: T1, RXRα; test: Gal4-DBD-RXRα-LBD hybrid reporter gene assay; format: cell-based, human
T1 construct: expressed in transfected cells; host or cells: HEK293T
From the text: The Gal4-fusion receptor plasmids pFA-CMV-hPPARα-LBD[34], pFA-CMV-hPPARγ-LBD[34], pFA-CMV-hPPARδ-LBD[34], pFA-CMV-hLXRα-LBD[35], pFA-CMV-hLXRβ-LBD[35], pFA-CMV-hRXRα-LBD[36], pFA-CMV-hRXRβ-LBD[36], pFA-CMV-hRXRγ-LBD[36], pFA-CMV-hRARα-LBD[36], pFA-CMV-hRARβ-LBD[36], pFA-CMV-hRARγ-LBD[36], pFA-CMV-hVDR-LBD[36] and pFA-CMV-hCAR-LBD[36] coding for the hinge region and ligand binding domain (LBD) of the canonical isoform of the respective nuclear receptor have been reported previously. pFR-Luc (Stratagene) was used as reporter plasmid and pRL-SV40 (Promega) for normalization of transfection efficiency and cell growth.
HEK293T cells were grown in DMEM high glucose, supplemented with 10% FCS, sodium pyruvate (1 mM), penicillin (100 U/mL) and streptomycin (100 μg/mL) at 37 °C and 5% CO2. The day before transfection, HEK293T cells were seeded in 96-well plates (2.5·10^4 cells/well). Before transfection, medium was changed to Opti-MEM without supplements. Transient transfection was carried out using Lipofectamine LTX reagent (Invitrogen) according to the manufacturer’s protocol with pFR-Luc (Stratagene), pRL-SV40 (Promega) and pFA-CMV-hNR-LBD. […] Luminescence was measured with an Infinite M200 luminometer (Tecan Deutschland GmbH) or a Tecan Spark 10 M luminometer (Tecan). […]

TGR5 = tested on: T2, TGR5; test: TGR5 assay (Eurofins); format: cell-based; details: 1 and 10 µM
T2 construct: Eurofins (Brussels, Belgium)

AMPKα1 = test: Kinase inhibition assay (radiometric or HTRF); format: biochemical; details: 20 µM
AMPKα2 = test: Kinase inhibition assay (radiometric or HTRF); format: biochemical; details: 20 µM
CaMKK2 = test: Kinase inhibition assay (radiometric or HTRF); format: biochemical; details: 20 µM
TAK1 = test: Kinase inhibition assay (radiometric or HTRF); format: biochemical; details: 20 µM
c-Kit = test: Kinase inhibition assay (radiometric or HTRF); format: biochemical
PDGF-Rα = test: Kinase inhibition assay (radiometric or HTRF); format: biochemical
[1] = Metabolism assay (liver microsomes); format: in vitro ADME, Sprague−Dawley rats; details: rat liver microsomes, 10 μM
Method: as §1
MgCl2). After 5 min, the reaction was started by the addition of 13 μL of microsome mix from the liver of Sprague−Dawley rats (Invitrogen; 20 mg protein/mL in 0.1 M phosphate buffer) in a shaking water bath at 37 °C.
The reaction was stopped by addition of 250 μL of ice-cold methanol at 0, 15, 30 and 60 min. The samples were diluted with 250 μL of DMSO and centrifuged at 10000 g for 5 min at 4 °C. The supernatants were analyzed and test compound was quantified by HPLC: mobile phase: MeOH 83%/H2O 17%/formic acid 0.1%; flow-rate:
1 mL/min; stationary phase: MultoHigh Phenyl phase, 5 μm, 250 × 4, precolumn, phenyl, 5 μm, 20 × 4; detection wavelength: 330 and 254 nm; injection volume: 50 μL. Control samples were performed to check the stability of 4 or 16 in the reaction mixture: first control was without NADPH, which is needed for the enzymatic activity of the microsomes, second control was with inactivated microsomes (incubated for 20 min at 90 °C), third control was […]
quantified by an external calibration curve, where data are expressed as means ± SEM of single determinations […]
obtained in three independent experiments. […]
as mean percent of remaining compound ± SEM; n=3): 4: 0 min: 100 ± 0%, 15 min: 86 ± 3%, 30 min: 74 ± 1%,

PKA = tested on: PKA; parameters: method as in doi:10.1016/S0960-894X(96)00601-4, PMID 11162439; details: cited from earlier work
human FXR = biological target: T3, human FXR (Homo sapiens, UniProt Q96RI1); test: Full-length FXR transactivation (reporter gene) assay in HeLa cells; format: cell-based; details: for Emax: HeLa; for EC50: read-out: hFXR: EC50; for FXR modulatory potency in words: SAR discussion
T3 construct: expressed in transfected cells; host or cells: HeLa
T3 sequence (Q96RI1 1-486): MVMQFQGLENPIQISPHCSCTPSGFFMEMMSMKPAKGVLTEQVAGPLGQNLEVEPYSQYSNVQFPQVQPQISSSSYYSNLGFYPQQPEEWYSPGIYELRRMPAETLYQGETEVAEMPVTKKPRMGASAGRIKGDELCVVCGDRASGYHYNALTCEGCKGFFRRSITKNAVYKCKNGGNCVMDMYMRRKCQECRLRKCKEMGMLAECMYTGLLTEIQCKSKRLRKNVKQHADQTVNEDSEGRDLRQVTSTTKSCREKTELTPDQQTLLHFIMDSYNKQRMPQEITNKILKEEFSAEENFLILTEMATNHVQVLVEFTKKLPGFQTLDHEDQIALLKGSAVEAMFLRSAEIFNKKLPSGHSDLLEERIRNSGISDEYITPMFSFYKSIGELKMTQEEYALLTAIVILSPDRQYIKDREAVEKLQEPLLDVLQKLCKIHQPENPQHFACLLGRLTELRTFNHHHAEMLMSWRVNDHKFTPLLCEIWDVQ
T3 sequence (P19793 1-462 partner): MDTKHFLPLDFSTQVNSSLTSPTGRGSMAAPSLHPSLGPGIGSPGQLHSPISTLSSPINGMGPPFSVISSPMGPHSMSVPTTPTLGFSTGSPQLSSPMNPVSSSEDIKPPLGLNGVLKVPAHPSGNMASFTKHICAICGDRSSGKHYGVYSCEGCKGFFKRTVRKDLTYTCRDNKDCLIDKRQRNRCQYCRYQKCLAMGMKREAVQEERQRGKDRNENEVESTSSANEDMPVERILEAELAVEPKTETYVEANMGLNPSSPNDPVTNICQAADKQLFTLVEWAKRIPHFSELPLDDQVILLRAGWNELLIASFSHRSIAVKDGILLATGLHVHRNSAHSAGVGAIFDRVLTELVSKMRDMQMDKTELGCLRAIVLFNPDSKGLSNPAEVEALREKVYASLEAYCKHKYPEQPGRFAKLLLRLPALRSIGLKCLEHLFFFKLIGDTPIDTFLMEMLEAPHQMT

[2] = full-length reporter gene assay, HeLa cells, mean ± SEM, n ≥ 3
[3] = full-length reporter gene assay

WST-1, mean percent of untreated control (HepG2 cells; HepG2, 50 µM): 88 ± 5%
Compound: C[C@H](CCC(=O)O)[C@H]1CC[C@H]2[C@@H]3[C@H](O)C[C@@H]4C[C@H](O)CC[C@]4(C)[C@H]3CC[C@]12C [compound 1, chenodeoxycholic acid, reference compound]

RXR agonistic activity (activation of RXRα-Gal4 chimera receptor) (RXRα): neither activated | Inhibition of AMPKα1 (AMPKα1): did not markedly inhibit | Inhibition of AMPKα2 (AMPKα2): did not markedly inhibit | Inhibition of CaMKK2 (CaMKK2): slight inhibition | Inhibition of TAK1 (TAK1): slight inhibition | Inhibition of c-Kit (c-Kit): potent inhibitor | Inhibition of PDGF-Rα (PDGF-Rα): potent inhibitor | WST-1, mean percent of untreated control (HepG2 cells; HepG2, 0.1 µM): 98 ± 9% | WST-1, mean percent of untreated control (HepG2 cells; HepG2, 1 µM): 80 ± 9% | WST-1, mean percent of untreated control (HepG2 cells; HepG2, 10 µM): 78 ± 3% | WST-1, mean percent of untreated control (HepG2 cells; HepG2, 50 µM): 65 ± 1% | WST-1, mean percent of untreated control (HepG2 cells; HepG2, 4 (10 µM) + 1 (50 µM)): 77 ± 7% | mean percent of remaining compound ([1]; 0 min): 100 ± 0% | mean percent of remaining compound ([1]; 15 min): 86 ± 3% | mean percent of remaining compound ([1]; 30 min): 74 ± 1% | mean percent of remaining compound ([1]; 60 min): 61 ± 3%
Compound: Cc1ccc(NC(=O)c2ccc(CN3CCN(C)CC3)cc2)cc1Nc1nccc(-c2cccnc2)n1 [compound 4, imatinib, reference compound]
TGR5 modulation (agonistic or antagonistic activity) (TGR5): no agonistic or antagonistic activity | Activity on PKA (PKA): inactive

Compound: CC(=O)Nc1ccc(C)c(Nc2nccc(-c3cccnc3)n2)c1.CC(=O)Nc1ccc(C)c(Nc2nccc(-c3cccnc3)n2)c1.CS(=O)(=O)O.CS(=O)(=O)O.CS(=O)(=O)O.CS(=O)(=O)O.O [compound 7]
hFXR: EC50 (human FXR; [2]): inactive

Compound: CS(=O)(=O)O.CS(=O)(=O)O.CS(=O)(=O)O.CS(=O)(=O)O.Cc1ccc(NC(=O)c2ccccc2)cc1Nc1nccc(-c2cccnc2)n1.Cc1ccc(NC(=O)c2ccccc2)cc1Nc1nccc(-c2cccnc2)n1.O [compound 8]
Emax (human FXR; read-out: hFXR: max. rel. act.): 9% | EC50 (human FXR; [2]): 0.45 ± 0.02 µM | FXR modulatory potency in words (human FXR; [3]): submicromolar

Compound: CS(=O)(=O)O.CS(=O)(=O)O.CS(=O)(=O)O.CS(=O)(=O)O.Cc1ccc(NC(=O)c2ccc3ccccc3c2)cc1Nc1nccc(-c2cccnc2)n1.Cc1ccc(NC(=O)c2ccc3ccccc3c2)cc1Nc1nccc(-c2cccnc2)n1.O.O.O [compound 9]
Emax (human FXR; read-out: hFXR: max. rel. act.): 7.1% | EC50 (human FXR; [2]): 0.46 ± 0.01 µM | FXR modulatory potency in words (human FXR; [3]): submicromolar

Compound: Cc1ccc(NC(=O)c2ccncc2)cc1Nc1nccc(-c2cccnc2)n1 [compound 10]
Emax (human FXR; read-out: hFXR: max. rel. act.): 11.7% | EC50 (human FXR; [2]): 3.5 ± 0.2 µM

Compound: Cc1ccc(C(=O)Nc2ccc(C)c(Nc3nccc(-c4cccnc4)n3)c2)cc1 [compound 11]
Emax (human FXR; read-out: hFXR: max. rel. act.): 8.1% | EC50 (human FXR; [2]): 0.051 ± 0.001 µM

Compound: CCc1ccc(C(=O)Nc2ccc(C)c(Nc3nccc(-c4cccnc4)n3)c2)cc1.CS(=O)(=O)O.CS(=O)(=O)O.O [compound 12]
Emax (human FXR; read-out: hFXR: max. rel. act.): 7.9% | EC50 (human FXR; [2]): 0.0064 ± 0.0004 µM | FXR modulatory potency in words (human FXR; [3]): single-digit nanomolar activity

Compound: Cc1ccc(NC(=O)c2ccc(C(C)(C)C)cc2)cc1Nc1nccc(-c2cccnc2)n1 [compound 13]
Emax (human FXR; read-out: hFXR: max. rel. act.): 8.6% | EC50 (human FXR; [2]): 0.58 ± 0.07 µM

Compound: Cc1ccc(NC(=O)c2ccc(-c3ccccc3)cc2)cc1Nc1nccc(-c2cccnc2)n1 [compound 14]
Emax (human FXR; read-out: hFXR: max. rel. act.): 7.1% | EC50 (human FXR; [2]): 0.13 ± 0.02 µM

Emax (human FXR; relative to FXR full agonist 3 at 3 µM, mean ± SEM, n ≥ 3, read-out: hFXR: max. rel. act. (converted)): 8.4% | EC50 (human FXR; [2]): 1 ± 0.1 µM
Compound: COc1ccc(C(=O)Nc2ccc(C)c(Nc3nccc(-c4cccnc4)n3)c2)cc1 [compound 15]

Compound: Cc1ccc(N)cc1Nc1nccc(-c2cccnc2)n1 [compound 17, reference compound]
Emax (human FXR; read-out: hFXR: max. rel. act.): 9.2% | EC50 (human FXR; [2]): 17.8 ± 1.1 µM
